Our source for the IC50 values is paper PMC7475246, “Unravelling the effect of two herbicide resistance mutations on acetolactate synthase kinetics and growth traits” (Journal of Experimental Botany, 2020).

In this experiment the test system is T1, acetolactate synthase (ALS; AHAS), ALS1 and ALS2.
T1 construct: native enzyme, partially purified by ammonium sulfate precipitation from young shoots (three- to four-leaf stage); mixture of ALS1 and ALS2
Description: in vitro ALS activity, colorimetric acetoin assay at […] nm. Conditions: 37 °C, 60 min; pH 7.5 HEPES, MgCl2, thiamine pyrophosphate, FAD; extract buffer with 200 mM pyruvate mixed 1:1 with MM; mean of three susceptible populations; read-out: I50. It counts as biochemical, Alopecurus aequalis.

Regarding `COC(=O)c1ccc(CNS(C)(=O)=O)cc1S(=O)(=O)NC(=O)Nc1nc(OC)cc(OC)n1` [MM, mesosulfuron-methyl], the IC50 worked out at 35.5 nM.
